Laboratory results published in US12473304B2, “Heterocyclic PAD4 inhibitors” (BRISTOL-MYERS SQUIBB COMPANY, priority 2020, dated 2025).

biological target: human PAD4 (hPAD4) (Homo sapiens (Human), UniProt Q9UM07); assay: RFMS Human PAD4 Functional Assay 1; type: biochemical; conditions: RFMS assay 1; 5 nM hPAD4, 250 μM BAEE substrate, 50 μM calcium, 37° C.
How it was run: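 Citrullination product read by RapidFire triple-quad MRM against a modified-citrulline internal standard, after TCA stop and 30 min phenyl glyoxal step at 37 °C. Reaction: 250 μM BAEE, 5 nM human PAD4, 90 min at 37 °C, pH 7.5 HEPES buffer with 50 μM calcium and 5 μM TPEN, following 30 min compound–enzyme preincubation (max 50 μM).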

Sequence of human PAD4 (hPAD4) (Q9UM07 whole entry): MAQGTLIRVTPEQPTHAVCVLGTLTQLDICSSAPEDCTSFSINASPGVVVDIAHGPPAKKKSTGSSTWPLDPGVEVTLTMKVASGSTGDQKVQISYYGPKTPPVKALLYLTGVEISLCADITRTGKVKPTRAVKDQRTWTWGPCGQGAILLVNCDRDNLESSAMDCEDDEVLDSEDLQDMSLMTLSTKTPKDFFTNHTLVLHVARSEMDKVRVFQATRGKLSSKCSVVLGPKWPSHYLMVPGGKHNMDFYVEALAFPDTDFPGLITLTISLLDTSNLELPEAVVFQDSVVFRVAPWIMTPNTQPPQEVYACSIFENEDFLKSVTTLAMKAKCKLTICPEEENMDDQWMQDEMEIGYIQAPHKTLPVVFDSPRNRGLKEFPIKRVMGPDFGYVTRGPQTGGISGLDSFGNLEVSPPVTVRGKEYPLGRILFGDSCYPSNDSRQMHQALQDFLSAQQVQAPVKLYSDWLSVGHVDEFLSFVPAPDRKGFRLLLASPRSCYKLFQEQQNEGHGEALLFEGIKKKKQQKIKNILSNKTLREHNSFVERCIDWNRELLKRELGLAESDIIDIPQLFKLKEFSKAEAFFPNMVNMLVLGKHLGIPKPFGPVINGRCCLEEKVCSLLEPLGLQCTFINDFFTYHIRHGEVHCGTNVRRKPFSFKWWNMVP

Compound | IC50 [nM]
Cc1c(-c2cc3cccc(OC[C@H]4CCC(=O)N4)c3n2CC2CC2)nn2cc(C(=O)N3CCC[C@@H](N)C3)cc(F)c12 [Example 570, (R)-5-(((2-(6-((R)-3-Aminopiperidine-1-carbonyl)-4-fluoro-3-methylpyrazolo[1,5-a]pyridin-2-yl)-1-(cyclopropylmethyl)-1H-indol-7-yl)oxy)methyl)pyrrolidin-2-one] | 180
Cc1c(-c2cc3cccc(OCCn4cc(N)cn4)c3n2CC2CC2)nn2cc(C(=O)N3CCC[C@@H](N)C3)ccc12 [Example 582, (R)-(2-(7-(2-(4-Amino-1H-pyrazol-1-yl)ethoxy)-1-(cyclopropylmethyl)-1H-indol-2-yl)-3-methylpyrazolo[1,5-a]pyridin-6-yl)(3-aminopiperidin-1-yl)methanone] | 300
Cc1c(-c2cc3cccc(OCCn4cc(N)cn4)c3n2CC2CC2)nn2cc(C(=O)N3C[C@H](N)C[C@@H](F)C3)ccc12 [Example 583, (2-(7-(2-(4-Amino-1H-pyrazol-1-yl)ethoxy)-1-(cyclopropylmethyl)-1H-indol-2-yl)-3-methylpyrazolo[1,5-a]pyridin-6-yl)((3R,5R)-3-amino-5-fluoropiperidin-1-yl)methanone] | 1610
Cc1c(-c2cc3cccc(OC[C@H]4CCC(=O)N4)c3n2CC2CC2)nn2cc(C(=O)N3CCC[C@@H](N)C3)ccc12 [Example 586, (R)-5-(((2-(6-((R)-3-Aminopiperidine-1-carbonyl)-3-methylpyrazolo[1,5-a]pyridin-2-yl)-1-(cyclopropylmethyl)-1H-indol-7-yl)oxy)methyl)pyrrolidin-2-one] | 150
Cc1c(-c2cc3cccc(OC[C@H]4CCC(=O)N4)c3n2CC2CC2)nn2cc(C(=O)N3C[C@H](N)C[C@@H](F)C3)ccc12 [Example 587, (R)-5-(((2-(6-((3R,5R)-3-Amino-5-fluoropiperidine-1-carbonyl)-3-methylpyrazolo[1,5-a]pyridin-2-yl)-1-(cyclopropylmethyl)-1H-indol-7-yl)oxy)methyl)pyrrolidin-2-one] | 1120
COc1cc(C(=O)N2C[C@H](N)C[C@@H](F)C2)cn2nc(-c3cc4ccnc(OCCn5ccnc5C)c4n3CC3CC3)c(C)c12 [Example 594, ((3R,5R)-3-Amino-5-fluoropiperidin-1-yl)(2-(1-(cyclopropylmethyl)-7-(2-(2-methyl-1H-imidazol-1-yl)ethoxy)-1H-pyrrolo[2,3-c]pyridin-2-yl)-4-methoxy-3-methylpyrazolo[1,5-a]pyridin-6-yl)methanone] | 390
COc1cc(C(=O)N2CCC[C@@H](N)C2)cn2nc(-c3cc4ccnc(OCCn5ccnc5C)c4n3CC3CC3)c(C)c12 [Example 595, (R)-(3-Aminopiperidin-1-yl)(2-(1-(cyclopropylmethyl)-7-(2-(2-methyl-1H-imidazol-1-yl)ethoxy)-1H-pyrrolo[2,3-c]pyridin-2-yl)-4-methoxy-3-methylpyrazolo[1,5-a]pyridin-6-yl)methanone] | 1280
COc1cc(C(=O)N2CCC[C@@H](N)C2)cn2nc(-c3cc4ccnc(OCC5COC5)c4n3CC3CC3)c(C)c12 [Example 596, (R)-(3-Aminopiperidin-1-yl)(2-(1-(cyclopropylmethyl)-7-(oxetan-3-ylmethoxy)-1H-pyrrolo[2,3-c]pyridin-2-yl)-4-methoxy-3-methylpyrazolo[1,5-a]pyridin-6-yl)methanone] | 7390

These reach a lower IC50. Values come first.

IC50 [nM] | Compound
20 | Cc1c(-c2cc3cccc(OC[C@@H]4CCC(=O)N4)c3n2CC2CC2)nn2cc(C(=O)N3CCC[C@@H](N)C3)cc(F)c12 [Example 569, (S)-5-(((2-(6-((R)-3-Aminopiperidine-1-carbonyl)-4-fluoro-3-methylpyrazolo[1,5-a]pyridin-2-yl)-1-(cyclopropylmethyl)-1H-indol-7-yl)oxy)methyl)pyrrolidin-2-one]
20 | Cc1c(-c2cc3cccc(OCCn4ccnc4)c3n2CC2CC2)nn2cc(C(=O)N3C[C@H](N)C[C@@H](F)C3)ccc12 [Example 574, (2-(7-(2-(1H-Imidazol-1-yl)ethoxy)-1-(cyclopropylmethyl)-1H-indol-2-yl)-3-methylpyrazolo[1,5-a]pyridin-6-yl)((3R,5R)-3-amino-5-fluoropiperidin-1-yl)methanone]
60 | Cc1c(-c2cc3cccc(OCCn4ccnc4)c3n2CC2CC2)nn2cc(C(=O)N3CCC[C@@H](N)C3)ccc12 [Example 575, (R)-(2-(7-(2-(1H-lmidazol-1-yl)ethoxy)-1-(cyclopropylmethyl)-1H-indol-2-yl)-3-methylpyrazolo[1,5-a]pyridin-6-yl)(3-aminopiperidin-1-yl)methanone]
60 | Cc1c(-c2cc3cccc(OCCn4cncn4)c3n2CC2CC2)nn2cc(C(=O)N3CCC[C@@H](N)C3)ccc12 [Example 580, (R)-(2-(7-(2-(1H-1,2,4-Triazol-1-yl)ethoxy)-1-(cyclopropylmethyl)-1H-indol-2-yl)-3-methylpyrazolo[1,5-a]pyridin-6-yl)(3-aminopiperidin-1-yl)methanone]
30 | Cc1c(-c2cc3cccc(OCCn4cncn4)c3n2CC2CC2)nn2cc(C(=O)N3C[C@H](N)C[C@@H](F)C3)ccc12 [Example 581, (2-(7-(2-(1H-1,2,4-Triazol-1-yl)ethoxy)-1-(cyclopropylmethyl)-1H-indol-2-yl)-3-methylpyrazolo[1,5-a]pyridin-6-yl)((3R, 5R)-3-amino-5-fluoropiperidin-1-yl)methanone]
50 | Cc1c(-c2cc3cccc(OC[C@@H]4CCC(=O)N4)c3n2CC2CC2)nn2cc(C(=O)N3CCC[C@@H](N)C3)ccc12 [Example 584, (S)-5-(((2-(6-((R)-3-Aminopiperidine-1-carbonyl)-3-methylpyrazolo[1,5-a]pyridin-2-yl)-1-(cyclopropylmethyl)-1H-indol-7-yl)oxy)methyl)pyrrolidin-2-one]
70 | Cc1c(-c2cc3cccc(OC[C@@H]4CCC(=O)N4)c3n2CC2CC2)nn2cc(C(=O)N3C[C@H](N)C[C@@H](F)C3)ccc12 [Example 585, (S)-5-(((2-(6-((3R,5R)-3-Amino-5-fluoropiperidine-1-carbonyl)-3-methylpyrazolo[1,5-a]pyridin-2-yl)-1-(cyclopropylmethyl)-1H-indol-7-yl)oxy)methyl)pyrrolidin-2-one]
30 | COc1cc(C(=O)N2C[C@H](N)C[C@@H](F)C2)cn2nc(-c3cc4ccnc(OCCn5cncn5)c4n3CC3CC3)c(C)c12 [Example 592, (2-(7-(2-(1H-1,2,4-Triazol-1-yl)ethoxy)-1-(cyclopropylmethyl)-1H-pyrrolo[2,3-c]pyridin-2-yl)-4-methoxy-3-methylpyrazolo[1,5-a]pyridin-6-yl)((3R,5R)-3-amino-5-fluoropiperidin-1-yl)methanone]
110 | COc1cc(C(=O)N2CCC[C@@H](N)C2)cn2nc(-c3cc4ccnc(OCCn5cncn5)c4n3CC3CC3)c(C)c12 [Example 593, (R)-(2-(7-(2-(1H-1,2,4-Triazol-1-yl)ethoxy)-1-(cyclopropylmethyl)-1H-pyrrolo[2,3-c]pyridin-2-yl)-4-methoxy-3-methylpyrazolo[1,5-a]pyridin-6-yl)(3-aminopiperidin-1-yl)methanone]
10 | COc1cc(C(=O)N2C[C@H](N)C[C@@H](F)C2)cn2nc(-c3cc4ccnc(OCCn5ccnc5)c4n3CC3CC3)c(C)c12 [Example 597, (2-(7-(2-(1H-Imidazol-1-yl)ethoxy)-1-(cyclopropylmethyl)-1H-pyrrolo[2,3-c]pyridin-2-yl)-4-methoxy-3-methylpyrazolo[1,5-a]pyridin-6-yl)((3R,5R)-3-amino-5-fluoropiperidin-1-yl)methanone]
